Source: article PMC7892437 (Frontiers in Pharmacology, 2021)
Several values for one entry are separate records, joined by “and”; a condition that tells them apart may be missing. Equal values may be shown once. Read-outs that look alike come from different tables or passages of the source.

Experiments:
[1] = tested on: VSV-SARS-CoV-2-Sdel18 pseudovirus; assay: microbe, parasite or virus in culture; format: cell-based
[2] = tested on: BHK21-hACE2 cells
[3] = tested on: SARS-CoV-2 BetaCoV/Shenzhen/SZTH-003/2020 strain; assay: microbe, parasite or virus in culture; format: cell-based; details: for inhibitory effect relative to Chloroquine diphosphate: authentic SARS-CoV-2 assay, in vitro
[4] = in vitro; details: hamster
[5] = tested on: Ebola virus; details: ref Johansen et al., 2013; cited from earlier work
[6] = tested on: VSV-G; format: cell-based, vesicular stomatitis virus
[7] = Pseudovirus, read-out: Co-treatment IC50
[8] = Pseudovirus, read-out: Pre-treatment IC50
[9] = Pseudovirus, read-out: Pre-treatment IC90
[10] = Severe acute respiratory syndrome coronavirus 2, Vero, 120 h
[11] = Pseudovirus, read-out: Co-treatment IC90

## CN1C[C@@H]2c3ccccc3Oc3ccc(Cl)cc3[C@H]2C1.Cl (racemic) [Asenapine (hydrochloride)]
[1]; read-out: IC90
  IC90: 76.4 µM
[2]; at the concentration of 100 μM
  cell cytotoxicity: no obvious cell cytotoxicity was observed
[3]
  IC90: 43 µM

## CCCCc1oc2ccccc2c1C(=O)c1cc(I)c(OCCN(CC)CC)c(I)c1.Cl [Amiodarone (hydrochloride)]
[3]; at a concentration of 100 μM
  effect on authentic SARS-CoV-2 virus infection: no effect

## CCN(CC)CCCC(C)Nc1ccnc2cc(Cl)ccc12 (stereo not shown) [Chloroquine diphosphate]
[1]; Pseudovirus, 12 h
  IC50: 11.6 µM
  IC90: 85.2 µM
[1]; [7]
  IC50: 27.6 µM
[1]; [8]
  IC50: 9.27 µM
[1]; [9]
  IC90: 35.2 µM
[3]; [10]
  IC50: 5.33 µM
  IC90: 12.9 µM

## CCN(CC)CCOc1ccc(C(=C(Cl)c2ccccc2)c2ccccc2)cc1 [Clomiphene (citrate)]
[1]; [11]
  IC90: 19.6 µM
[4]; Co-treatment CC50
  CC50: 54.4 µM
[4]; Pre-treatment CC50
  CC50: 24.9 µM
[3]; [10]
  IC90: 33.9 µM

## CCN(CC)CCOc1ccc(C(=C(Cl)c2ccccc2)c2ccccc2)cc1 [Clomiphene]
[5]
  survival benefit for infected mice: 90%

## CN1CCc2c(c3ccccc3n2Cc2ccccc2)C1 [Mebhydrolin (napadisylate)]
[1]; read-out: IC50
  IC50: 12.1 µM
[1]; read-out: IC90
  IC90: 133 µM

## CN(C)c1ccc2nc3ccc(=[N+](C)C)cc-3sc2c1 [Methylene Blue]
[1]; Pseudovirus, 12 h
  IC50: 9.05 µM
  IC90: 70.5 µM

## CC[C@@H]1/C=C(\C)C[C@H](C)C[C@H](OC)[C@H]2O[C@@](O)(C(=O)C(=O)N3CCCC[C@H]3C(=O)O[C@H](/C(C)=C/[C@@H]3CC[C@H](Cl)[C@H](OC)C3)[C@H](C)[C@@H](O)CC1=O)[C@H](C)C[C@@H]2OC [Pimecrolimus]
[1]
  IC90: 32 µM
[1]; Pseudovirus, 12 h
  IC50: 11.3 µM
  IC90: < 50 µM
[2]
  cytotoxicity compared with the other selected drugs: more serious cytotoxic than other drugs

## NC(=O)c1ncn([C@@H]2O[C@H](CO)[C@@H](O)[C@H]2O)n1 [Ribavirin]
[6]
  inhibitory effect on VSV-G: significant inhibitor effects
[1]; Pseudovirus, 12 h
  IC50: 9.29 µM
  IC90: 62.1 µM

## CN(C)CCOc1ccc(/C(=C(/CCCl)c2ccccc2)c2ccccc2)cc1 [Toremifene (Citrate)]
[1]; read-out: IC50
  IC50: 5.53 µM
[1]; read-out: IC90
  IC90: 86.5 µM

## CN1CCN(CCCN2c3ccccc3Sc3ccc(C(F)(F)F)cc32)CC1.Cl.Cl [Trifluoperazine (dihydrochloride)]
[1]; read-out: IC50
  IC50: 5.44 µM
[1]; read-out: IC90
  IC90: < 50 µM and 27.3 µM
[2]
  cytotoxicity compared with the other selected drugs: more serious cytotoxic than other drugs

## Br.Cc1ccc(Sc2ccccc2N2CCNCC2)c(C)c1 [Vortioxetine (hydrobromide)]
[1]; read-out: IC50
  IC50: 6.99 µM
[1]; read-out: IC90
  IC90: < 50 µM and 44.6 µM
[3]
  IC50: 28.1 µM
  IC90: 62.8 µM
  inhibitory effect relative to Chloroquine diphosphate: slightly less effective

## Cc1ccc(Sc2ccccc2N2CCNCC2)c(C)c1 [Vortioxetine]
[1]
  IC90: 46.6 µM
[1]; Pseudovirus, 12 h
  IC50: 7.16 µM
  IC90: < 50 µM
[1]; [7]
  IC50: 6.77 µM
[1]; [11]
  IC90: 22.3 µM
[1]; [8]
  IC50: 3 µM
[1]; [9]
  IC90: 13.8 µM
[4]; Co-treatment CC50
  CC50: 27.1 µM
[4]; Pre-treatment CC50
  CC50: 28.5 µM
[3]; [10]
  IC50: 8.03 µM
  IC90: 18.3 µM
[3]
  inhibitory effect relative to Chloroquine diphosphate: comparable to Chloroquine diphosphate
